# Laboratory results published in ChEMBL document CHEMBL1201862, “PubChem BioAssay data set” (2004).
# Active and inactive are the calls of the source.
# Legend:
# Coagulation factor XII = target: T1, Coagulation factor XII (Homo sapiens, UniProt P00748); experiment: activated coagulation factor XII inhibitor potency, concentration-effect curve, cell-free (AID 716); format: functional
# T1 sequence (P00748 whole entry): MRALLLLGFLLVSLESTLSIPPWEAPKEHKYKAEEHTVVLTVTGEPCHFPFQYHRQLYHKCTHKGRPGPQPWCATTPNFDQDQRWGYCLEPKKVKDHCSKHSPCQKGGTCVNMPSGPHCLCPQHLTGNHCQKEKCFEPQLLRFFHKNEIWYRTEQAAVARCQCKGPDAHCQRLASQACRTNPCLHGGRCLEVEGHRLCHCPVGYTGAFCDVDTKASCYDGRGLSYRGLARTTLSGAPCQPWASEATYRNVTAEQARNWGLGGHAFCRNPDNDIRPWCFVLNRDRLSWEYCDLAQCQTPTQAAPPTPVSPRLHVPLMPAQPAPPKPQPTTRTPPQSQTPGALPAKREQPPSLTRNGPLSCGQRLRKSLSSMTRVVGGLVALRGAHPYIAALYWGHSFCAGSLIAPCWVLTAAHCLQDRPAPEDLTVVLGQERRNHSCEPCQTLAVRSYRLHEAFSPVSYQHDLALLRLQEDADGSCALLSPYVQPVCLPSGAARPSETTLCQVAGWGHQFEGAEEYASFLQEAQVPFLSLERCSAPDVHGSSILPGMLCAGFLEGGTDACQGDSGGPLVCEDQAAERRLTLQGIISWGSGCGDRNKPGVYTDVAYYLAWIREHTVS
# [1] = target: Potassium voltage-gated channel subfamily KQT member 2 (Rattus norvegicus, UniProt O88943); experiment: potentiation of rat KCNQ2 current – cell-based, retigabine-insensitive compounds, dose response (AID 2654); format: functional
# Beta-galactosidase = Beta-galactosidase (Escherichia coli, UniProt Q8VNN2); experiment: detection-enzyme interference by beta-gal modulators – biochemical, E. coli enzyme, set 3, artefact control for CCR6 antagonist project, dose response (AID 504712); format: functional
# [2] = target: Alkaline phosphatase, placental type (Homo sapiens, UniProt P05187); experiment: human placental alkaline phosphatase inhibition – biochemical, luminescence, confirmation (AID 1512); format: functional
# [3] = target: T2, Alkaline phosphatase, tissue-nonspecific isozyme (Homo sapiens, UniProt P05186); experiment: potency against alkaline phosphatase TNAP – biochemical, luminescent, dose response, SAR follow-up (AID 1056)
# T2 sequence (P05186 whole entry): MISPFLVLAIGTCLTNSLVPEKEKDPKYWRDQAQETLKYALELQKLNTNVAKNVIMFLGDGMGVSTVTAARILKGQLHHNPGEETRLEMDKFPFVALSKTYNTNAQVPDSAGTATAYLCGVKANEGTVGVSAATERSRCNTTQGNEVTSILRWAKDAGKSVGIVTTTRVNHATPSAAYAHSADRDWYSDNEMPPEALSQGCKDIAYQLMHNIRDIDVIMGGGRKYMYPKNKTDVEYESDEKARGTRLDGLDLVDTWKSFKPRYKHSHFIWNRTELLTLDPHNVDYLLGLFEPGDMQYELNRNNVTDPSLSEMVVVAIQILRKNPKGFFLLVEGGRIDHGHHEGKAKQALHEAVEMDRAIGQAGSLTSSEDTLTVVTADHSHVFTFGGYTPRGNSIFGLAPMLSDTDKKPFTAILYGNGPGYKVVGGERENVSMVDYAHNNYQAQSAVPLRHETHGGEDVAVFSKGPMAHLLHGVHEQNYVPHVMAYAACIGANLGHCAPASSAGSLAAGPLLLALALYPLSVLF
# [4] = target: T3, Intestinal-type alkaline phosphatase (Homo sapiens, UniProt P09923); experiment: Dose Response confirmation of uHTS hits from a small molecule inhibitors of human intestinal alkaline phosphatase via a luminescent assay. [Related pubchem assays (depositor defined):AID2544, AID2574]; format: functional
# Caspase-3 = target: T4, Caspase-3 (Homo sapiens, UniProt P42574); experiment: activation of caspase-3 zymogen – biochemical, absorbance, dose response (AID 489014)
# T4 sequence (P42574 whole entry): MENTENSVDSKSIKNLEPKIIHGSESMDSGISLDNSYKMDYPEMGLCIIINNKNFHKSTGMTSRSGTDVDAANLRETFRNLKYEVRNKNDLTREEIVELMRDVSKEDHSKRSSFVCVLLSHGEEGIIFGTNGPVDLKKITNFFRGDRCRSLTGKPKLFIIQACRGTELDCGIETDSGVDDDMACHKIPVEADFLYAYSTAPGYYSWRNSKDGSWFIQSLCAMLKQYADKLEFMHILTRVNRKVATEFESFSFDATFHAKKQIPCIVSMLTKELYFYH
# Caspase-7 = Caspase-7 (Homo sapiens, UniProt P55210); experiment: activation of caspase-7 zymogen – biochemical, absorbance, counter-screen for procaspase-3 activator project, dose response (AID 489013)
# Phosphomannomutase 2 = Phosphomannomutase 2 (Homo sapiens, UniProt O15305); experiment: Counter screen SAR assay for PMM2 inhibitors via a fluorescence intensity assay. [Related pubchem assays (depositor defined):AID1545, AID1574]
# [5] = target: Glucose-6-phosphate 1-dehydrogenase (Homo sapiens, UniProt P11413); experiment: inhibition of Homo sapiens G6PD, dose series – biochemical, fluorescence, selectivity assay for P. falciparum G6PD inhibitor project, dose response (AID 504792); format: functional
# [6] = target: DNA dC->dU-editing enzyme APOBEC-3G (Homo sapiens, UniProt Q9HC16); experiment: Dose Response confirmation of small molecule APOBEC3G DNA Deaminase Inhibitors via a fluorescence-based single-stranded DNA deaminase assay. [Related pubchem assays (depositor defined):AID493012, AID493028]; format: functional
# [7] = target: DNA dC->dU-editing enzyme APOBEC-3A (Homo sapiens, UniProt P31941); experiment: A3A deaminase inhibition for selectivity – biochemical, dose response (AID 504722); format: functional
# [8] = target: Phosphoethanolamine/phosphocholine phosphatase (Homo sapiens, UniProt Q8TCT1); experiment: SAR assay for compounds that inhibit PHOSPHO1. [Related pubchem assays (depositor defined):AID1545, AID1565, AID1574]
# [9] = target: T5, Histone-lysine N-methyltransferase NSD2 (Homo sapiens, UniProt O96028); format: biochemical
# T5 sequence (O96028 whole entry): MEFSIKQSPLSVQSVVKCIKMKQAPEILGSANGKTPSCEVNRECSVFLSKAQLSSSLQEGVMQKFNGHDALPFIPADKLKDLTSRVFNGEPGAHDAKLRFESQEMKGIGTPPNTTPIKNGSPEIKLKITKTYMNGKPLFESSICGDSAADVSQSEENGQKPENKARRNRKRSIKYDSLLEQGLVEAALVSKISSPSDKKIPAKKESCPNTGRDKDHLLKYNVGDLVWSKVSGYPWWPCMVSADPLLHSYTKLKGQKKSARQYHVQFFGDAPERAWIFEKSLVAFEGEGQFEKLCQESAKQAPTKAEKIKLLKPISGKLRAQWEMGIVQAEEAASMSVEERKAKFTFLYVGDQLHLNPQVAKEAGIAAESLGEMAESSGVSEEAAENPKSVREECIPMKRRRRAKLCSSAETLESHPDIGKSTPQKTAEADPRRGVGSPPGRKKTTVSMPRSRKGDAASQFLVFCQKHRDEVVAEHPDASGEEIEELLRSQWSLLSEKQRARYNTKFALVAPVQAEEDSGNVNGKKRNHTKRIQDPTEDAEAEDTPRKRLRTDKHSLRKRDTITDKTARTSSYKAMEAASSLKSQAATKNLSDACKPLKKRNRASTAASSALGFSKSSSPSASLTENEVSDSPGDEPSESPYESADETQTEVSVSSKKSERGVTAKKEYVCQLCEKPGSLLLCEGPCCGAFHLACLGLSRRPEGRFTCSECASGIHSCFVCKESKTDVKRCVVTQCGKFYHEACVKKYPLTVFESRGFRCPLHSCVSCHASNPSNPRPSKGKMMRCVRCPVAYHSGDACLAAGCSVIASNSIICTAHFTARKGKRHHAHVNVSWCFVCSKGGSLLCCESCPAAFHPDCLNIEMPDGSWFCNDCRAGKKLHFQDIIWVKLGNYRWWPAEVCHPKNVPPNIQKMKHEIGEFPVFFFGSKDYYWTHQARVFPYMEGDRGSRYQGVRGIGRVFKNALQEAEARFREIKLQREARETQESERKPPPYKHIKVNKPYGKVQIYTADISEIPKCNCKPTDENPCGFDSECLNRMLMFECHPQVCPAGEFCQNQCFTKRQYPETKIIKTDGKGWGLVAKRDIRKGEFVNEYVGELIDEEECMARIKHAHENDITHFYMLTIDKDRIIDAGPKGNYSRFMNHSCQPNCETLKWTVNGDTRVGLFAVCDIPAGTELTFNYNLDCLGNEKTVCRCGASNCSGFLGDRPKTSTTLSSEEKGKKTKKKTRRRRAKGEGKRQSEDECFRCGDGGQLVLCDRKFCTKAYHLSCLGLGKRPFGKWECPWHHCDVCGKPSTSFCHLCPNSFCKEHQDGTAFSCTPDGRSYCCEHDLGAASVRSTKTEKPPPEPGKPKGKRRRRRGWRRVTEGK
# [10] = target: 1-phosphatidylinositol 4,5-bisphosphate phosphodiesterase gamma-1 (Homo sapiens, UniProt P19174); experiment: Counterscreen for inhibitors of phospholipase C isozymes (PLC-B3): Fluorescence-based biochemical high throughput dose response assay to identify inhibitors of phospholipase C isozymes (PLC-gamma1).
# ORF 73 = ORF 73 (Human herpesvirus 8, UniProt O40947); experiment: KSHV LANA DNA-binding disruption – biochemical, fluorescence polarization, cherry-picked samples, dose response (AID 504725); design: species or system Human gammaherpesvirus 8;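 also: fluorescence polarization of a labeled DNA duplex reporting LANA DNA binding; potency is for inhibitors that block LANA binding to the DNA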
# [11] = target: T3, Intestinal-type alkaline phosphatase; experiment: inhibition of human intestinal alkaline phosphatase – biochemical, dose response (AID 488876); format: functional
# [12] = target: 1-phosphatidylinositol 4,5-bisphosphate phosphodiesterase beta-3 (Homo sapiens, UniProt Q01970); experiment: Fluorescence-based biochemical high throughput dose response assay to identify inhibitors of phospholipase C isozymes (PLC-B3).
# [13] = target: T2, Alkaline phosphatase, tissue-nonspecific isozyme; experiment: TNAP enzyme inhibition by screening hits, dose response, selectivity assay for mouse IAP inhibitor project, biochemical, human TNAP, uHTS hits (AID 488906); format: functional
# [14] = target: Intestinal-type alkaline phosphatase (Mus musculus, UniProt P24822); experiment: PubChem AID 488785; format: functional
# [15] = target: T6, Short transient receptor potential channel 4 (Mus musculus, UniProt Q9QUQ5); experiment: potentiation of DAMGO-evoked TRPC4 calcium signal – cell-based, HEK293 TRPC4/mu-opioid, Fluo-4 calcium, EC20 DAMGO, dose response (AID 434941); format: functional
# T6 sequence (Q9QUQ5 whole entry): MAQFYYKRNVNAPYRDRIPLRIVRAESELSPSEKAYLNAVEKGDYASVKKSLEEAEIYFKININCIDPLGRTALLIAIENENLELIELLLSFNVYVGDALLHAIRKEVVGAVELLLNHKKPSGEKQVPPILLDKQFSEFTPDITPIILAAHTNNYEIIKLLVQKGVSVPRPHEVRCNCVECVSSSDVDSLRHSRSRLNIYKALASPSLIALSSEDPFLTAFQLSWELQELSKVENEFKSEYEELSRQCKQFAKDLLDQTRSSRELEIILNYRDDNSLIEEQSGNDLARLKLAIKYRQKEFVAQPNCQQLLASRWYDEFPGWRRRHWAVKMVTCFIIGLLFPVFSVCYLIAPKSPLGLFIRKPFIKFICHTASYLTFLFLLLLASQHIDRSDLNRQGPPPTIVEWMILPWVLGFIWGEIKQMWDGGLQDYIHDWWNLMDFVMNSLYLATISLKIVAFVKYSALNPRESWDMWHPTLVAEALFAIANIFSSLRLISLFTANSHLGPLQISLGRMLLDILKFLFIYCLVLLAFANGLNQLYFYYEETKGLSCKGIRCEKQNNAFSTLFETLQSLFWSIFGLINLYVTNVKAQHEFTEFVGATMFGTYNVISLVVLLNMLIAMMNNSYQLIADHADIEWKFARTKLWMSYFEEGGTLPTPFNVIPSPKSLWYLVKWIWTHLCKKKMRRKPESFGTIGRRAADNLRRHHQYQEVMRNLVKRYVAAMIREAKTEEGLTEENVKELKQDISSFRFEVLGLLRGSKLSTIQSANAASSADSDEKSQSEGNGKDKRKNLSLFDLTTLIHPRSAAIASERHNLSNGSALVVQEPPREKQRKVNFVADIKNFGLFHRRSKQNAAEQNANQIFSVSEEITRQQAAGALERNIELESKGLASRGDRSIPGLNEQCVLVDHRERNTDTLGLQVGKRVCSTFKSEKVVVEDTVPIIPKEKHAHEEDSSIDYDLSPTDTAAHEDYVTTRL
# T3 sequence (P09923 whole entry): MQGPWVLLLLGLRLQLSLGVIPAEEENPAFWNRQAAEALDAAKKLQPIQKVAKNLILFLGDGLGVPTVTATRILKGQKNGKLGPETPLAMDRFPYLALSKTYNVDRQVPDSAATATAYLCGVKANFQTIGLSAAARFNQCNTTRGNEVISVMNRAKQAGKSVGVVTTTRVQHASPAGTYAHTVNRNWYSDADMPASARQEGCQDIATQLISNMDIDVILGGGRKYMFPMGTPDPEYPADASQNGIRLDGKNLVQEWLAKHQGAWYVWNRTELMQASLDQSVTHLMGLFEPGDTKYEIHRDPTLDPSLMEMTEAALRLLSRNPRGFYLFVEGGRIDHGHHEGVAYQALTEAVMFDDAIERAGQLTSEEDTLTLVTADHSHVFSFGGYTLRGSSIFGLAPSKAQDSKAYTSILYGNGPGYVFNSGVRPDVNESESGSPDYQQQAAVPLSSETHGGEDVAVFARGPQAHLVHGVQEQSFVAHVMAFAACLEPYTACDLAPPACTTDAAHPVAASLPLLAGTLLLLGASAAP
# Sequence of Alkaline phosphatase, placental type (P05187 whole entry): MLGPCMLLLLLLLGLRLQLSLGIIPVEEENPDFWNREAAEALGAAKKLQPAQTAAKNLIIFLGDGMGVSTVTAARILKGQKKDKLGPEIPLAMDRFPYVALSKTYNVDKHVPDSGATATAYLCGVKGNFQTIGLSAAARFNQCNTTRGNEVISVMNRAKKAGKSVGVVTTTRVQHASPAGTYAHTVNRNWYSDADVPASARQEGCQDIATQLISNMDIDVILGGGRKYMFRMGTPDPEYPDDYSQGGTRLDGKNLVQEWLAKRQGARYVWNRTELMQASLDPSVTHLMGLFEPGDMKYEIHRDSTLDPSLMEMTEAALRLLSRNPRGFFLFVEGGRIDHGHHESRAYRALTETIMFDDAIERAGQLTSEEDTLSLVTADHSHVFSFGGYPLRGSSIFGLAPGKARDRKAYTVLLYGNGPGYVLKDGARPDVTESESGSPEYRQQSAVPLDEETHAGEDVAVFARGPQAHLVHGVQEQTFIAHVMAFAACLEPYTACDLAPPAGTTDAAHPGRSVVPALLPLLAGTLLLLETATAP
# Sequence of DNA dC->dU-editing enzyme APOBEC-3A (P31941 whole entry): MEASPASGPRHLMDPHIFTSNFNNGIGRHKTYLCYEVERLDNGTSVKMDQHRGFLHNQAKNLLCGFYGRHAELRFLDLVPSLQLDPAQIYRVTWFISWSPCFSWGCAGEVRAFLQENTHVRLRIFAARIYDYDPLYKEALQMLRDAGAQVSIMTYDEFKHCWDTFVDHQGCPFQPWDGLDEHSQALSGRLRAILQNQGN
# Sequence of Potassium voltage-gated channel subfamily KQT member 2 (O88943 whole entry): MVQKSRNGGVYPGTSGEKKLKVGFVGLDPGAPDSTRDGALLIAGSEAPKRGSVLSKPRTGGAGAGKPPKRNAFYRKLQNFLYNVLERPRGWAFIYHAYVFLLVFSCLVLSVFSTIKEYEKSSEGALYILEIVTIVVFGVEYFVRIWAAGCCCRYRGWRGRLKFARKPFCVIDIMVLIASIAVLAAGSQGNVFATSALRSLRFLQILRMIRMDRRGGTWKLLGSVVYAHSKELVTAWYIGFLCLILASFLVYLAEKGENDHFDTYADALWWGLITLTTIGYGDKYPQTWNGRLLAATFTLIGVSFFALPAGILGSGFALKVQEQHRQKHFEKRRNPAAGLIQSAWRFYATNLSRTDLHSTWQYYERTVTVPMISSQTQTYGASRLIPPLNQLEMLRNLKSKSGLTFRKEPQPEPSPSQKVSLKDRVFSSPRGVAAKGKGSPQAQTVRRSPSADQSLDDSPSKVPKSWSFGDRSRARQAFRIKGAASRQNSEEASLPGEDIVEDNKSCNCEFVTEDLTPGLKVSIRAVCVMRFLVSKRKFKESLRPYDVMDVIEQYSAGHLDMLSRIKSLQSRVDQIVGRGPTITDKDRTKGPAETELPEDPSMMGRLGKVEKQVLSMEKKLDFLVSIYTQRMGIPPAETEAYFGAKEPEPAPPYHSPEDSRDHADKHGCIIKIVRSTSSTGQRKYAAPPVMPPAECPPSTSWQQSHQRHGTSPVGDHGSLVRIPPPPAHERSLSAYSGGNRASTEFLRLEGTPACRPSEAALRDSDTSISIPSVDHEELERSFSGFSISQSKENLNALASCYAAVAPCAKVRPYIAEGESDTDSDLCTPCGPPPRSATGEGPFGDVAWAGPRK
# Sequence of DNA dC->dU-editing enzyme APOBEC-3G (Q9HC16 whole entry): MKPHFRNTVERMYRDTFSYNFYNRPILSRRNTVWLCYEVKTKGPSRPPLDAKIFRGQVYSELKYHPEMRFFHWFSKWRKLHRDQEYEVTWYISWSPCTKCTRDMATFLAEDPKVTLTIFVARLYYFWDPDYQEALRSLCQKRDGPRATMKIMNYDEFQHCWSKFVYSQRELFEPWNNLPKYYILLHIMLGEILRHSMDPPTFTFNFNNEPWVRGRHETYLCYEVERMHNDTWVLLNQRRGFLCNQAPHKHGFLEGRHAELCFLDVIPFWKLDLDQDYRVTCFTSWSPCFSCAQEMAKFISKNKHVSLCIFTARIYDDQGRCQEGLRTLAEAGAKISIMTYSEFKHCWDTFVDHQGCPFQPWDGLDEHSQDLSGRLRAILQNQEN
# Sequence of ORF 73 (O40947 whole entry): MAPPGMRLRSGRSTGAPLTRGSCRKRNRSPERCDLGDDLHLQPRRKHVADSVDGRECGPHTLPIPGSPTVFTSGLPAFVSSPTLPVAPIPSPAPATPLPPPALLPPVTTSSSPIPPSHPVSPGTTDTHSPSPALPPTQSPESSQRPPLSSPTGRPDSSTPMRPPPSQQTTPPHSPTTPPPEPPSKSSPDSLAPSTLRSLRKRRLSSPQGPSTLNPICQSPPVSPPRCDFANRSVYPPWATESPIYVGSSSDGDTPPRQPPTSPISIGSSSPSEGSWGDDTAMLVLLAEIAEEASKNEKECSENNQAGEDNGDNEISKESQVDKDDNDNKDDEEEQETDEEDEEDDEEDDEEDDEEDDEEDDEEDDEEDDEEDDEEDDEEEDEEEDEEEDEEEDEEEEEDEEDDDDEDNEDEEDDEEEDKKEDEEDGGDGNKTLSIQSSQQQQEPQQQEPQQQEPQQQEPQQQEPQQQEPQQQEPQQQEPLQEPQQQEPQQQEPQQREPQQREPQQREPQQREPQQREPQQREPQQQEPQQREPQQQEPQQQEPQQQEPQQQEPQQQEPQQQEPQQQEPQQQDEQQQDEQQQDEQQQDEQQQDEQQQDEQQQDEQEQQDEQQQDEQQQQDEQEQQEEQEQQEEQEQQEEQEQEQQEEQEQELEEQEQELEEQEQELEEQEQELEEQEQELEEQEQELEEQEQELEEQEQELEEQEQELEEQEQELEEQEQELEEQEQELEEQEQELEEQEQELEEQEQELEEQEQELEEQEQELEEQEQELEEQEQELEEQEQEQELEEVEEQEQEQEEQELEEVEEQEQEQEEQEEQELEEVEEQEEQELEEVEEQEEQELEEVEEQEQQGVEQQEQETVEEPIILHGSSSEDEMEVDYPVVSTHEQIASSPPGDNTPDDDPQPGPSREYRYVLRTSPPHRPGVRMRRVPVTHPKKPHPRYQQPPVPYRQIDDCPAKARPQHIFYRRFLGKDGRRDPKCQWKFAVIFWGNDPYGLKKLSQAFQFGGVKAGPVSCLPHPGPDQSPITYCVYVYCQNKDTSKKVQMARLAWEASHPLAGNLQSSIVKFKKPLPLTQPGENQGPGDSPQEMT
# Sequence of Phosphoethanolamine/phosphocholine phosphatase (Q8TCT1 whole entry): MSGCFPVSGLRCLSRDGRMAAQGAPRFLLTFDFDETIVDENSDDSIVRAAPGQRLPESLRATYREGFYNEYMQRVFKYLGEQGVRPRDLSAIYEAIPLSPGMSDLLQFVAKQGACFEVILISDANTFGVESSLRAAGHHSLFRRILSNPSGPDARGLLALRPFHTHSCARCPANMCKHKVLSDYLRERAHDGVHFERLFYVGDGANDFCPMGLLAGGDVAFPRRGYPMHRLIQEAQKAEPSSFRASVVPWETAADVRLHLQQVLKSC
# Sequence of Caspase-7 (P55210 24-198 limits assumed): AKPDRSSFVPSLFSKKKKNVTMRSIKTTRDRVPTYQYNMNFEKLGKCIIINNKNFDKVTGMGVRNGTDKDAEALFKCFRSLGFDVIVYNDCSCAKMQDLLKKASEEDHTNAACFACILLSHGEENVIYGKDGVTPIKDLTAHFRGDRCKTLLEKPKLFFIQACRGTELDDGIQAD
# Sequence of Caspase-7 (P55210 207-303 limits assumed): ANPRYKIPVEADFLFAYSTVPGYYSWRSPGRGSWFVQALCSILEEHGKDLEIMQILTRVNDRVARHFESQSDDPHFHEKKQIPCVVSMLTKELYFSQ
# Sequence of Phosphomannomutase 2 (O15305 whole entry): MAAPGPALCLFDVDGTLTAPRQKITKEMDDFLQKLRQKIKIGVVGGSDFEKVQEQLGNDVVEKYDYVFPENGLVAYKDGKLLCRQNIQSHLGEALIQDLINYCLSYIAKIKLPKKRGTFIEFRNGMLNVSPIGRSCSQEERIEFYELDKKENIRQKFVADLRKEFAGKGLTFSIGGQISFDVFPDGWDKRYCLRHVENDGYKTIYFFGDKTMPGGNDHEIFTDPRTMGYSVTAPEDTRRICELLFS
# Sequence of Intestinal-type alkaline phosphatase (Mus musculus, UniProt P24822) (P24822 whole entry): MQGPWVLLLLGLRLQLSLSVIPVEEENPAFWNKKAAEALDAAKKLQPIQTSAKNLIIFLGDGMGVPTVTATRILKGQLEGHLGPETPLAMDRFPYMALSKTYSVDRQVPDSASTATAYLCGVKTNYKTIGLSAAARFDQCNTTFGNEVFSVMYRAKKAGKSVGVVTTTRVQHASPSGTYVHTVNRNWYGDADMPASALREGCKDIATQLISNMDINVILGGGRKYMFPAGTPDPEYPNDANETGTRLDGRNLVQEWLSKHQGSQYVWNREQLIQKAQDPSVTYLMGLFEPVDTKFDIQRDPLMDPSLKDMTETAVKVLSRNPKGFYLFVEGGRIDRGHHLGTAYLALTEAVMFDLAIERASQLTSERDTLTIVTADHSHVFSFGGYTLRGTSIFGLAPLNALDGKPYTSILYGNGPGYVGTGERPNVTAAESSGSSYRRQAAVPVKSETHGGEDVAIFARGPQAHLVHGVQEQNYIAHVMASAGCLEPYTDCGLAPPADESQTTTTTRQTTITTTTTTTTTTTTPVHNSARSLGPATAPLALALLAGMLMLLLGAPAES
smiles,measurement,setting,value
CCOC(=O)CSc1nnc(CNC(=O)Cc2ccccc2)n1C,IC50,Coagulation factor XII,> 50 µM (inactive)
Cc1cc(C)cc(NC(=O)Nc2cccnc2)c1,EC50,[1],10.7 µM (active)
CCCOc1cccc(C(=O)NC(=S)Nc2cccc(C(F)(F)F)c2)c1,IC50,Beta-galactosidase,> 66.6 µM (inactive)
Cc1cc2nc(C3CCN(Cc4nnnn4Cc4cccs4)CC3)[nH]c2cc1C,IC50,[2],2.73 µM (active)
same,IC50,[3],5.64 µM (active)
same,IC50,[4],> 100 µM (inactive)
CC1(C)CC(=O)C2=C(C1)c1c(ccc3ccccc13)NC2c1ccc(Br)o1 (configuration not stated),EC50,Caspase-3,> 85.2 µM (inactive)
same,EC50,Caspase-7,> 85.2 µM (inactive)
O=c1c2cc(F)ccc2sn1-c1ccc(F)cc1,IC50,[3],> 100 µM (inactive)
same,IC50,Phosphomannomutase 2,86.9 µM (active)
same,IC50,[5],16.7 µM (active)
same,IC50,[6],15.5 µM (active)
same,IC50,[7],> 100 µM (inactive)
same,IC50,[8],> 10 µM (inactive)
O=C(CCCN1C(=O)/C(=C\c2ccco2)SC1=S)Nc1ccc(O)cc1C(=O)O,AC50,[9],16.1 µM (active)
same,IC50,[10],> 122 µM (inactive)
same,AC50,ORF 73,47.2 µM (active)
same,IC50,[11],> 100 µM (inactive)
same,IC50,[12],> 122 µM (inactive)
same,IC50,[13],> 100 µM (inactive)
same,IC50,[14],6.43 µM (active)
COc1ccc(/N=C(\C)C2=C(O)C(=O)N(CCO)C2c2ccc([N+](=O)[O-])cc2)cc1 (configuration not stated),EC50,[15],0.47 µM (active)
